Test results reported in patent US4868321A, “Isothiocyanate intermediates” (FMC Corporation, priority 1988, dated 1989).

Columns and labels:
Format in all cases: in vivo
Wheat [1] = assay: Preemergence Herbicidal Activity, Wheat; conditions: Triticum aestivum, pre-emergence
From the text: (§1) The herbicidal data in the following Tables 3 and 4 was obtained in the manner described in PCT published application no. […] In those tables, the test compounds are identified by numbers which correspond to those in Table 1, "kg/ha" is kilograms per hectare, and "% C" is percent control.

Barnyardgrass [2] = assay: Postemergence Herbicidal Activity, Barnyardgrass; conditions: Echinochloa crus-galli, post-emergence
From the text: as §1

Johnsongrass [3] = assay: Postemergence Herbicidal Activity, Johnsongrass; conditions: Sorghum halepense, post-emergence
From the text: as §1

Green Foxtail [4] = assay: Preemergence Herbicidal Activity, Green Foxtail; conditions: Setaria viridis, pre-emergence
From the text: as §1

Field Corn [5] = assay: Postemergence Herbicidal Activity, Field Corn; conditions: Zea mays, post-emergence
From the text: as §1

Cotton [6] = assay: Postemergence Herbicidal Activity, Cotton; conditions: Gossypium hirsutum, post-emergence
From the text: (§2) The herbicidal data in the following Tables 3 and 4 was obtained in the manner described in PCT published application no. WO 85/01939, previously mentioned, usually employing solutions of the herbicidal compound in 50/50 acetone/water mixtures. In those tables, the test compounds are identified by numbers which correspond to those in Table 1, "kg/ha" is kilograms per hectare, and "% C" is percent control.

Rice [7] = assay: Preemergence Herbicidal Activity, Rice; conditions: Oryza sativa, pre-emergence
From the text: as §1

Velvetleaf [8] = assay: Preemergence Herbicidal Activity, Velvetleaf; conditions: Abutilon theophrasti, pre-emergence
From the text: as §2

Field Bindweed [9] = assay: Postemergence Herbicidal Activity, Field Bindweed; conditions: post-emergence
From the text: as §2

Green Foxtail [10] = assay: Postemergence Herbicidal Activity, Green Foxtail; conditions: Setaria viridis, post-emergence
From the text: as §1

Soybean [11] = assay: Postemergence Herbicidal Activity, Soybean; conditions: Glycine max, post-emergence
From the text: as §1

Field Corn [12] = assay: Preemergence Herbicidal Activity, Field Corn; conditions: Zea mays, pre-emergence
From the text: as §1

Cotton [13] = assay: Preemergence Herbicidal Activity, Cotton; conditions: Gossypium hirsutum, pre-emergence
From the text: as §2

Johnsongrass [14] = assay: Preemergence Herbicidal Activity, Johnsongrass; conditions: Sorghum halepense, pre-emergence
From the text: as §1

Morningglory [15] = assay: Postemergence Herbicidal Activity, Morningglory; conditions: Ipomoea, post-emergence
From the text: as §2

Wheat [16] = assay: Postemergence Herbicidal Activity, Wheat; conditions: Triticum aestivum, post-emergence
From the text: as §1

Morningglory [17] = assay: Preemergence Herbicidal Activity, Morningglory; conditions: Ipomoea, pre-emergence
From the text: as §2

Soybean [18] = assay: Preemergence Herbicidal Activity, Soybean; conditions: Glycine max, pre-emergence
From the text: as §1

Field Bindweed [19] = assay: Preemergence Herbicidal Activity, Field Bindweed; conditions: pre-emergence
From the text: as §2

Rice [20] = assay: Postemergence Herbicidal Activity, Rice; conditions: Oryza sativa, post-emergence
From the text: as §1

Velvetleaf [21] = assay: Postemergence Herbicidal Activity, Velvetleaf; conditions: Abutilon theophrasti, post-emergence
From the text: as §2

Barnyardgrass [22] = assay: Preemergence Herbicidal Activity, Barnyardgrass; conditions: Echinochloa crus-galli, pre-emergence
From the text: as §1

Structure (SMILES): CCCS(=O)(=O)N(c1cc(-n2nnn(CCCF)c2=O)c(F)cc1Br)S(=O)(=O)CCC [Compound 27]
- plant injury at 1000 g/ha (Wheat [1]; 1.0 kg/ha): 60%
- pest or weed control at 1000 g/ha (Barnyardgrass [2]; 1.0 kg/ha): 100%
- pest or weed control at 1000 g/ha (Johnsongrass [3]; 1.0 kg/ha): 100%
- pest or weed control at 1000 g/ha (Green Foxtail [4]; 1.0 kg/ha): 100%
- plant injury at 1000 g/ha (Field Corn [5]; 1.0 kg/ha): 95%
- plant injury at 1000 g/ha (Cotton [6]; 1.0 kg/ha): 100%
- plant injury at 1000 g/ha (Rice [7]; 1.0 kg/ha): 60%
- pest or weed control at 1000 g/ha (Velvetleaf [8]; 1.0 kg/ha): 100%
- pest or weed control at 1000 g/ha (Field Bindweed [9]; 1.0 kg/ha): 95%
- pest or weed control at 1000 g/ha (Green Foxtail [10]; 1.0 kg/ha): 100%
- plant injury at 1000 g/ha (Soybean [11]; 1.0 kg/ha): 90%
- plant injury at 1000 g/ha (Field Corn [12]; 1.0 kg/ha): 95%
- plant injury at 1000 g/ha (Cotton [13]; 1.0 kg/ha): 95%
- pest or weed control at 1000 g/ha (Johnsongrass [14]; 1.0 kg/ha): 95%
- pest or weed control at 1000 g/ha (Morningglory [15]; 1.0 kg/ha): 100%
- plant injury at 1000 g/ha (Wheat [16]; 1.0 kg/ha): 80%
- pest or weed control at 1000 g/ha (Morningglory [17]; 1.0 kg/ha): 100%
- plant injury at 1000 g/ha (Soybean [18]; 1.0 kg/ha): 30%
- pest or weed control at 1000 g/ha (Field Bindweed [19]; 1.0 kg/ha): 100%
- plant injury at 1000 g/ha (Rice [20]; 1.0 kg/ha): 30%
- pest or weed control at 1000 g/ha (Velvetleaf [21]; 1.0 kg/ha): 100%
- pest or weed control at 1000 g/ha (Barnyardgrass [22]; 1.0 kg/ha): 100%

Structure (SMILES): O=c1n(CCCF)nnn1-c1cc(NS(=O)(=O)C(F)(F)F)c(Cl)cc1F [Compound 30, 1-[4-Chloro-2-fluoro-5-(N-trifluoromethylsulfonylamino)phenyl]-1,4-dihydro-4-(3-fluoropropyl)-5H-tetrazol-5-one]
- plant injury at 250 g/ha (Wheat [1]; 0.25 kg/ha): 0%
- pest or weed control at 250 g/ha (Barnyardgrass [2]; 0.25 kg/ha): 10%
- pest or weed control at 250 g/ha (Johnsongrass [3]; 0.25 kg/ha): 0%
- pest or weed control at 250 g/ha (Green Foxtail [4]; 0.25 kg/ha): 10%
- plant injury at 250 g/ha (Field Corn [5]; 0.25 kg/ha): 30%
- plant injury at 250 g/ha (Cotton [6]; 0.25 kg/ha): 90%
- plant injury at 250 g/ha (Rice [7]; 0.25 kg/ha): 20%
- pest or weed control at 250 g/ha (Velvetleaf [8]; 0.25 kg/ha): 100%
- pest or weed control at 250 g/ha (Field Bindweed [9]; 0.25 kg/ha): 70%
- pest or weed control at 250 g/ha (Green Foxtail [10]; 0.25 kg/ha): 0%
- plant injury at 250 g/ha (Soybean [11]; 0.25 kg/ha): 40%
- plant injury at 250 g/ha (Field Corn [12]; 0.25 kg/ha): 10%
- plant injury at 250 g/ha (Cotton [13]; 0.25 kg/ha): 50%
- pest or weed control at 250 g/ha (Johnsongrass [14]; 0.25 kg/ha): 60%
- pest or weed control at 250 g/ha (Morningglory [15]; 0.25 kg/ha): 80%
- plant injury at 250 g/ha (Wheat [16]; 0.25 kg/ha): 10%
- pest or weed control at 250 g/ha (Morningglory [17]; 0.25 kg/ha): 60%
- plant injury at 250 g/ha (Soybean [18]; 0.25 kg/ha): 10%
- pest or weed control at 250 g/ha (Field Bindweed [19]; 0.25 kg/ha): 95%
- plant injury at 250 g/ha (Rice [20]; 0.25 kg/ha): 10%
- pest or weed control at 250 g/ha (Velvetleaf [21]; 0.25 kg/ha): 100%
- pest or weed control at 250 g/ha (Barnyardgrass [22]; 0.25 kg/ha): 0%

Structure (SMILES): CCCS(=O)(=O)N(c1cc(-n2nnn(CCCF)c2=O)c(F)cc1F)S(=O)(=O)CCC [Compound 25]
- plant injury at 500 g/ha (Wheat [1]; 0.5 kg/ha): 20%
- pest or weed control at 500 g/ha (Barnyardgrass [2]; 0.5 kg/ha): 20%
- pest or weed control at 500 g/ha (Johnsongrass [3]; 0.5 kg/ha): 20%
- pest or weed control at 500 g/ha (Green Foxtail [4]; 0.5 kg/ha): 10%
- plant injury at 500 g/ha (Field Corn [5]; 0.5 kg/ha): 60%
- plant injury at 500 g/ha (Cotton [6]; 0.5 kg/ha): 40%
- plant injury at 500 g/ha (Rice [7]; 0.5 kg/ha): 20%
- pest or weed control at 500 g/ha (Velvetleaf [8]; 0.5 kg/ha): 20%
- pest or weed control at 500 g/ha (Field Bindweed [9]; 0.5 kg/ha): 40%
- pest or weed control at 500 g/ha (Green Foxtail [10]; 0.5 kg/ha): 30%
- plant injury at 500 g/ha (Soybean [11]; 0.5 kg/ha): 20%
- plant injury at 500 g/ha (Field Corn [12]; 0.5 kg/ha): 80%
- plant injury at 500 g/ha (Cotton [13]; 0.5 kg/ha): 10%
- pest or weed control at 500 g/ha (Johnsongrass [14]; 0.5 kg/ha): 60%
- pest or weed control at 500 g/ha (Morningglory [15]; 0.5 kg/ha): 30%
- plant injury at 500 g/ha (Wheat [16]; 0.5 kg/ha): 20%
- pest or weed control at 500 g/ha (Morningglory [17]; 0.5 kg/ha): 10%
- plant injury at 500 g/ha (Soybean [18]; 0.5 kg/ha): 20%
- pest or weed control at 500 g/ha (Field Bindweed [19]; 0.5 kg/ha): 0%
- plant injury at 500 g/ha (Rice [20]; 0.5 kg/ha): 20%
- pest or weed control at 500 g/ha (Velvetleaf [21]; 0.5 kg/ha): 80%
- pest or weed control at 500 g/ha (Barnyardgrass [22]; 0.5 kg/ha): 50%
